Test results: patent US9504256B2, “Fabrication of magnetic nanoparticles” (University of South Carolina, priority 2013, dated 2016)

Tested on: Staphylococcus aureus ATCC 25423
Assay: Disk diffusion assay
Assay type: cell-based
Settings: ATCC25423, 12 μg PenG, read-out: inhibition zone diameter
Experimental: The PMAA grafted magnetic nanoparticles were used to non-covalently attach the beta-lactam antibiotic penicillin-G (PenG) and subsequently tested for activity against bacteria. Escherichia coli (Gram-negative) and Staphylococcus aureus (Gram-positive) were selected as the target bacteria. The disk diffusion assay of PenG-nanoparticle complex was conducted with a control group of free PenG of the same dose (12 μg PenG). […] Thus, PMAA grafted magnetic nanoparticles enhanced the bioactivity of penG against bacteria when the nanoparticles were physically bound with PenG. Without wishing to be bound by any particular theory, it is believed that the enhanced inhibition activity was due to the locally high concentrations of antibiotics physically attached to PMAA grafted magnetic nanoparticles, which overwhelms the resistance of bacterial strains. The magnetic properties also offer a valuable stimulus technique to direct the nanoparticles in complicated bacterial environments, such as biofilms, while free antibiotic are not able to access cells in the sticky extracellular polymeric substances (EPS) of biofilms.
Escherichia coli ATCC 25922 and Staphylococcus aureus ATCC 25423 were allowed to grow in 10 mL of tryptic soy broth (TSB) at 37° C. overnight to an optical density of 0.8 (OD600=0.8) and then diluted 10-fold. 0.1 mL of the diluted culture was used to inoculate an agar plate. […]

`CC1(C)S[C@@H]2[C@H](NC(=O)Cc3ccccc3)C(=O)N2[C@H]1C(=O)O` [free PenG, penicillin-G] was tested, and the zone of inhibition at 12 µg/disc was 18 mm.
